Source: ChEMBL document CHEMBL2169755, “A Divergent SAR Study Allows Optimization of a Potent 5-HT2c Inhibitor to a Promising Antimalarial Scaffold” (ACS Med Chem Lett, 2012)
Calls of active or inactive are those of the source. No cut-off for these calls is given here.

Legend:
Plasmodium falciparum [1] = assay: microbe, parasite or virus in culture; settings: 3D7 A
Description: Antiplasmodial activity against Plasmodium falciparum 3D7A assessed as inhibition of [3H]hypoxanthine incorporation incubated for 24 hrs prior to [3H]hypoxanthine addition measured after 24 hrs by beta scintillation counting

Plasmodium berghei [2] = assay: Antimalarial activity against Plasmodium berghei ANKA infected in CD1 mouse assessed as inhibition of parasitemia at 50 mg/kg, po administered QD for 2 days measured after 4 days by YOYO1-based flow cytometric analysis relative to vehicle-treated control; format: functional
Plasmodium berghei [3] = assay: Antimalarial activity against Plasmodium berghei ANKA assessed as reduction in viable parasites at 10 times IC50 after 72 hrs; format: functional, organism-based
Plasmodium falciparum [4] = assay: Antiplasmodial activity against Plasmodium falciparum Dd2 assessed as inhibition of [3H]hypoxanthine incorporation incubated for 24 hrs prior to [3H]hypoxanthine addition measured after 24 hrs by beta scintillation counting; format: functional, organism-based
[5] = biological target: T1, 5-hydroxytryptamine receptor 2C (Homo sapiens, UniProt P28335); assay: Inhibition of human 5HT2c receptor expressed in CHO-K1 cells assessed as inhibition of 5HT-induced calcium influx measured up to 30 secs by aequorin luminescence assay; format: functional, cell-based
T1 sequence (P28335 whole entry): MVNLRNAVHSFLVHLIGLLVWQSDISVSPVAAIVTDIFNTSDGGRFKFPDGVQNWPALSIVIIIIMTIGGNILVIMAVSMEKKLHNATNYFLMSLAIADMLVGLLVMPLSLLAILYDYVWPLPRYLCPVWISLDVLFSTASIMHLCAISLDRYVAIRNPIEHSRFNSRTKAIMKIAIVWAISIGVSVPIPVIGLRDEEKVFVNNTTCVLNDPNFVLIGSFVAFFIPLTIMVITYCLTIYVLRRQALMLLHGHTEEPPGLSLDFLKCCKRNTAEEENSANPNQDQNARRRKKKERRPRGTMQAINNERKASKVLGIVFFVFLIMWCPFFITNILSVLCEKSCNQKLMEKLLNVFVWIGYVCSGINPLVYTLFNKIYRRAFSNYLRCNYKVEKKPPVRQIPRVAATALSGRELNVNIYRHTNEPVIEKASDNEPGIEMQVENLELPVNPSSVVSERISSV

Plasmodium falciparum [6] = assay: Antiplasmodial activity against Plasmodium falciparum assessed as pyknotic phenotype after 24 hrs by Giemsa-staining method; format: functional, organism-based
Liver = assay: Intrinsic clearance in mouse liver microsomes at 0.5 uM by HPLC analysis; format: ADME, Microsome
Liver microsomes = assay: Intrinsic clearance in human liver microsomes at 0.5 uM by HPLC analysis; format: ADME, Microsome

Row | SMILES | IC50 (Plasmodium falciparum [1]) [nM] | IC50 (Plasmodium falciparum [4]) [nM] | IC50 [5] [nM] | also measured
1 | O=C(Nc1cc(OC(F)(F)F)cc(-c2cccnc2)c1)N1CCc2cc(F)ccc21 | 10 |  |  | 
2 | CN1CCN(c2cc3c(cc2Cl)CCN3C(=O)Nc2cc(OC(F)(F)F)cc(-c3cccnc3)c2)CC1 | 140 | 210 | 10000 | inhibition in vivo at 50 mg/kg (Plasmodium berghei [2]): 35%; Activity (Plasmodium berghei [3]): Active
3 | CCc1nc(N)nc(N)c1-c1ccc(Cl)cc1 [PYRIMETHAMINE] | 20 | > 40000 |  | 
4 | CN1CCN(c2ccc3c(c2)N(C(=O)Nc2cc(OC(F)(F)F)cc(-c4cccnc4)c2)CC3)CC1 | 490 |  | > 40000 | 
5 | CCN(CC)CCCC(C)Nc1ccnc2cc(Cl)ccc12 (stereo unspecified) |  |  |  | Activity (Plasmodium falciparum [6]): Active
6 | O=C(Nc1cc(OC(F)(F)F)cc(-c2cccnc2)c1)N1CCc2ccc(F)cc21 | 10 | 10 | 600 | CLH (Liver): 2.1 mL/min/g; CLH (Liver microsomes): 0.5 mL/min/g
7 | O=C(Nc1cc(OC(F)(F)F)cc(-c2cccnc2)c1)N1CCc2ccc(Cl)cc21 | 150 |  |  | 
8 | Cc1ccc2c(c1)N(C(=O)Nc1cc(OC(F)(F)F)cc(-c3cccnc3)c1)CC2 | 30 |  |  | 
9 | Cc1ccc2c(c1)CCN2C(=O)Nc1cc(OC(F)(F)F)cc(-c2cccnc2)c1 | 10 | 40 |  | 
10 | O=C(Nc1cc(OC(F)(F)F)cc(-c2cccnc2)c1)N1CCc2ccc(Br)cc21 | 190 | 640 |  | 

More lines, main results first:

Row | IC50 (Plasmodium falciparum [1]) [nM] | IC50 (Plasmodium falciparum [4]) [nM] | IC50 [5] [nM] | SMILES | also measured
11 | 2260 |  |  | COc1cc2c(cc1C(F)(F)F)N(C(=O)Nc1cc(OC(F)(F)F)cc(-c3ccccc3)c1)CC2 | 
12 | 90 |  | 120 | COc1ccc2c(c1)N(C(=O)Nc1cc(OC(F)(F)F)cc(-c3cccnc3)c1)CC2 | 
13 | 20 |  |  | O=C(Nc1cc(OC(F)(F)F)cc(-c2cccnc2)c1)N1CCc2cc(C(F)(F)F)ccc21 | 
14 | 20 | 140 |  | Cc1cc2c(cc1Cl)N(C(=O)Nc1cc(OC(F)(F)F)cc(-c3cccnc3)c1)CC2 | 
15 | 10 | 20 | 1250 | O=C(Nc1cc(OC(F)(F)F)cc(-c2cccnc2)c1)N1CCc2ccccc21 | 
